The values that follow come from US20160237059A1, “HETEROCYCLIC SUBSTITUTED TRIFLUOROMETHYL PYRIMIDINONES AND THEIR USE” (BAYER PHARMA AKTIENGESELLSCHAFT, priority 2013, published 2016).

As a reminder, the IC50 is the concentration at which inhibition is half-maximal. A lower IC50 goes with inhibition by little substance.

Holding throughout (format): cell-based
The target of assay [1] is T1, murine CCR2 (Mus musculus, UniProt P51683).
T1 construct: host or cells: U2OS β-arrestin cell line
Briefly: Functional β-arrestin recruiting test with murine MCP-1 (B-2b). Conditions: U2OS β-arrestin cell line transfected with murine CCR2; agonist murine MCP-1; in some cases means of several determinations. Put shortly: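 In a PathHunter β-galactosidase complementation assay, U2OS cells expressing murine CCR2 were preincubated 10 min with compound (10-point, 1:3.16 dilutions), then challenged with murine MCP-1 at its predetermined EC50 for 90 min at 37 °C. Luminescence was read after 60 min, and IC50 was fitted with a 4-parameter Hill function.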

The next assay addresses T2, human CCR2 (Homo sapiens, UniProt P41597).
T2 construct: host or cells: Chem-1 cell line
T2 sequence (P41597 1-360 isoform P41597-2): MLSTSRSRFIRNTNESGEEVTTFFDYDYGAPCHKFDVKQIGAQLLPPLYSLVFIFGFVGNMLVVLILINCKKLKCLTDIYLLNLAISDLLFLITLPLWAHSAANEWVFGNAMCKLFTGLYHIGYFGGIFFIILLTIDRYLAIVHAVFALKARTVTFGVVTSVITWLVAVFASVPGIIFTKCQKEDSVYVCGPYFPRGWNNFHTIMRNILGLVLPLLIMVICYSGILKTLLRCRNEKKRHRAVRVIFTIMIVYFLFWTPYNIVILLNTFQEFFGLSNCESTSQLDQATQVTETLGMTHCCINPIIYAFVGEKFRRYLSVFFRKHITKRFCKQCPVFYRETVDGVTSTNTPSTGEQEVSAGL
Description: Functional Ca2+ release test (B-1). The following applies: Chem-1 cell line transfected with human CCR2; 50% inhibition of the MCP-1 effect, MCP-1 at EC50 (about 5 nM); in some cases means of several determinations. An outline of the steps:
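Inhibition of MCP-1-evoked Ca2+ release was measured over 120 s by fluorescence imaging in Fluo-4-loaded, human CCR2-transfected Chem-1 cells. Compounds, tested in 10-point 1:3.16 series, were added 10 min before agonist at its EC50 (typically about 5 nM). IC50 values were obtained by 4-parameter logistic fitting.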

Assay [2] concerns the target T1, murine CCR2. Description: Functional β-arrestin recruiting test with human MCP-1 (B-2a). The following applies: U2OS β-arrestin cell line transfected with murine CCR2; agonist human MCP-1 at EC50 (about 3 nM); in some cases means of several determinations. Put shortly: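 Antagonist mode in U2OS cells expressing murine CCR2, read by PathHunter β-galactosidase complementation luminescence. Cells pre-incubated 10 min with 10-point compound dilutions (1:3.16 steps), then stimulated with human MCP-1 at its EC50 (usually about 3 nM) for 90 min at 37° C.; IC50 from 4-parameter logistic fit.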

T1 sequence (P51683 whole entry): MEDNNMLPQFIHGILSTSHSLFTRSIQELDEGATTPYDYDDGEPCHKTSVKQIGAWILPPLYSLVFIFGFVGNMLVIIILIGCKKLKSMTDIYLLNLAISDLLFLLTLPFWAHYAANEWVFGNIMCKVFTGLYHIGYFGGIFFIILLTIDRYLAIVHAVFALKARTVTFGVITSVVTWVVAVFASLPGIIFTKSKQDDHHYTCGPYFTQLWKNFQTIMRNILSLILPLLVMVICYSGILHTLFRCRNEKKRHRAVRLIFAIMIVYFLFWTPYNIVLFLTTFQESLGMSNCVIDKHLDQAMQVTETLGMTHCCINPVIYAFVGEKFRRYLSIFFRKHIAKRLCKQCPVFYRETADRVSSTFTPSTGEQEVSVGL

In the case of “5-(3,4-dichlorobenzyl-2-(3-methoxypyridin-2-yl)-6-(trifluoromethyl)pyrimidin-4(3H)-one [Example 23]”, the results for the IC50 on murine CCR2 [1], at human CCR2 and on murine CCR2 [2] were 0.135 µM, 0.0004 µM and 0.025 µM, respectively.
The like results for `O=c1[nH]c(-c2ccccn2)nc(C(F)(F)F)c1Oc1ccc(F)c(Cl)c1` [Example 2, 5-(3-chloro-4-fluorophenoxy)-2-(pyridin-2-yl)-6-(trifluoromethyl)pyrimidin-4(3H)-one] were, in that order, 1.04 µM, 0.0045 µM and 0.088 µM.
The like results for `O=c1[nH]c(-c2ccccn2)nc(C(F)(F)F)c1Oc1ccc(Cl)c(Cl)c1` [Example 3, 5-(3,4-dichlorophenoxy)-2-(pyridin-2-yl)-6-(trifluoromethyl)pyrimidin-4(3H)-one] were, in that order, 0.205 µM, 0.0012 µM and 0.031 µM.
The like results for `O=c1[nH]c(-c2ncc(F)cc2F)nc(C(F)(F)F)c1Oc1ccc(Cl)c(Cl)c1` [Example 4, 5-(3,4-dichlorophenoxy)-2-(3,5-difluoropyridin-2-yl)-6-(trifluoromethyl)pyrimidin-4(3H)-one] were, in that order, 0.38 µM, 0.0029 µM and 0.087 µM.
For the compound `O=c1[nH]c(-c2ncccc2Cl)nc(C(F)(F)F)c1Oc1ccc(Cl)c(Cl)c1` [Example 5, 2-(3-chloropyridin-2-yl)-5-(3,4-dichlorophenoxy)-6-(trifluoromethyl)pyrimidin-4(3H)-one], the 50% inhibitory concentration (IC50) at murine CCR2 [1] stood at 0.05 µM; against human CCR2, 0.001 µM; at murine CCR2 [2], 0.013 µM.
The like results for `Cc1ccc(-c2nc(C(F)(F)F)c(Oc3ccc(Cl)c(Cl)c3)c(=O)[nH]2)nc1` [Example 7, 5-(3,4-dichlorophenoxy)-2-(5-methylpyridin-2-yl)-6-(trifluoromethyl)pyrimidin-4(3H)-one] were, in that order, 0.435 µM, 0.0022 µM and 0.12 µM.
For the compound `O=c1[nH]c(-c2ncccc2Cl)nc(C(F)(F)F)c1Oc1ccc(Cl)c(F)c1` [Example 11, 5-(4-chloro-3-fluorophenoxy)-2-(3-chloropyridin-2-yl)-6-(trifluoromethyl)pyrimidin-4(3H)-one], the results for the IC50 at murine CCR2 [1], on human CCR2 and at murine CCR2 [2] were 0.194 µM, 0.0043 µM and 0.028 µM, respectively.
Taken in the same sequence, the figures for `O=c1[nH]c(-c2ncccc2Cl)nc(C(F)(F)F)c1Oc1ccc(F)c(Cl)c1` [Example 14, 5-(3-chloro-4-fluorophenoxy)-2-(3-chloropyridin-2-yl)-6-(trifluoromethyl)pyrimidin-4(3H)-one] were 0.26 µM, 0.011 µM and 0.025 µM.
Consider `O=c1[nH]c(-c2ncccc2F)nc(C(F)(F)F)c1Oc1ccc(Cl)c(Cl)c1` [Example 15, 5-(3,4-dichlorophenoxy)-2-(3-fluoropyridin-2-yl)-6-(trifluoromethyl)pyrimidin-4(3H)-one], for which the IC50 on murine CCR2 [1] is 0.144 µM; against human CCR2, 0.002 µM; at murine CCR2 [2], 0.03 µM.
Taken in the same sequence, the figures for `O=c1[nH]c(-c2ncccc2Cl)nc(C(F)(F)F)c1Cc1ccc(Cl)c(Cl)c1` [Example 16, 2-(3-chloropyridin-2-yl)-5-(3,4-dichlorobenzyl)-6-(trifluoromethyl)pyrimidin-4(3H)-one] were 0.307 µM, 0.0021 µM and 0.021 µM.
The like results for `O=c1[nH]c(-c2ncccc2F)nc(C(F)(F)F)c1Cc1ccc(Cl)c(Cl)c1` [Example 17, 5-(3,4-dichlorobenzyl)-2-(3-fluoropyridin-2-yl)-6-(trifluoromethyl)pyrimidin-4(3H)-one] were, in that order, 0.191 µM, 0.0014 µM and 0.043 µM.
`COc1cccnc1-c1nc(C(F)(F)F)c(Oc2ccc(Cl)c(Cl)c2)c(=O)[nH]1` [Example 24, 5-(3,4-dichlorophenoxy)-2-(3-methoxypyridin-2-yl)-6-(trifluoromethyl)pyrimidin-4(3H)-one]: the IC50 turned out to be 0.054 µM at murine CCR2 [1], 0.0004 µM on human CCR2 and 0.0082 µM at murine CCR2 [2].
For the compound `O=c1[nH]c(-c2ncccc2Cl)nc(C(F)(F)F)c1Cc1ccc(Cl)c(C(F)(F)F)c1` [Example 35, 2-(3-chloropyridin-2-yl)-5-[4-chloro-3-(trifluoromethyl)benzyl]-6-(trifluoromethyl)pyrimidin-4(3H)-one], the IC50 turned out to be 0.16 µM on murine CCR2 [1], 0.0015 µM at human CCR2 and 0.035 µM on murine CCR2 [2].
With `COc1ncccc1-c1nc(C(F)(F)F)c(Oc2ccc(Cl)c(C(F)(F)F)c2)c(=O)[nH]1` [Example 37, 5-[4-chloro-3-(trifluoromethyl)phenoxy]-2-(2-methoxypyridin-3-yl)-6-(trifluoromethyl)pyrimidin-4(3H)-one], the IC50 was determined as 0.122 µM at murine CCR2 [1], 0.0009 µM on human CCR2 and 0.04 µM at murine CCR2 [2].
The like results for `O=c1[nH]c(-c2ncccc2Cl)nc(C(F)(F)F)c1Oc1ccc(Cl)c(C(F)(F)F)c1` [Example 38, 2-(3-chloropyridin-2-yl)-5-[4-chloro-3-(trifluoromethyl)phenoxy]-6-(trifluoromethyl)pyrimidin-4(3H)-one] were, in that order, 0.0089 µM, 0.0003 µM and 0.0051 µM.
Take `O=c1[nH]c(Cc2cccs2)nc(C(F)(F)F)c1Cc1ccc(Cl)c(Cl)c1` [Example 172]: the IC50 is 0.062 µM against human CCR2 and 0.14 µM on murine CCR2 [2].
Taken in the same sequence, the figures for `O=c1[nH]c(Cn2cncn2)nc(C(F)(F)F)c1Cc1ccc(Cl)c(Cl)c1` [Example 173, 5-(3,4-dichlorobenzyl)-2-(1H-1,2,4-triazol-1-ylmethyl)-6-(trifluoromethyl)pyrimidin-4(3H)-one] were 0.26 µM and 0.98 µM.
The like results for `Cc1nc(Cc2nc(C(F)(F)F)c(Cc3ccc(Cl)c(Cl)c3)c(=O)[nH]2)cs1` [Example 174, 5-(3,4-dichlorobenzyl)-2-[(2-methyl-1,3-thiazol-4-yl)methyl]-6-(trifluoromethyl)pyrimidin-4(3H)-one] were, in that order, 0.15 µM and 1.1 µM.
Turning to `O=c1[nH]c(N2CCCC2)nc(C(F)(F)F)c1Cc1ccc(Cl)c(Cl)c1` [Example 175, 5-(3,4-dichlorobenzyl)-2-(pyrrolidin-1-yl)-6-(trifluoromethyl)pyrimidin-4(3H)-one], the figures for the IC50 on human CCR2 and on murine CCR2 [2] were 0.36 µM and 1.4 µM, respectively.
In the case of `CCOC(=O)C1CCN(c2nc(C(F)(F)F)c(Cc3ccc(Cl)c(Cl)c3)c(=O)[nH]2)CC1` [Example 176, ethyl 1-[5-(3,4-dichlorobenzyl)-6-oxo-4-(trifluoromethyl)-1,6-dihydropyrimidin-2-yl]piperidine-4-carboxylate], the results for the IC50 at human CCR2 and on murine CCR2 [2] were 0.045 µM and 0.46 µM, respectively.
Taken in the same sequence, the figures for `COc1ccc2nc(-c3nc(C(F)(F)F)c(Oc4ccc(Cl)c(Cl)c4)c(=O)[nH]3)ccc2c1` [Example 177, 5-(3,4-dichlorophenoxy)-2-(6-methoxyquinolin-2-yl)-6-(trifluoromethyl)pyrimidin-4(3H)-one] were 0.051 µM and 1.5 µM.
As for `O=c1[nH]c(-c2ccc3ccccc3n2)nc(C(F)(F)F)c1Oc1ccc(Cl)c(Cl)c1` [Example 178], the values for the IC50 on human CCR2 and at murine CCR2 [2] were 0.033 µM and 0.535 µM, respectively.
Taken in the same sequence, the figures for `O=c1[nH]c(NC2CCOC2)nc(C(F)(F)F)c1Oc1ccc(Cl)c(Cl)c1` (stereo not shown) [Example 245] were 0.16 µM and 1.4 µM.
As to `CCOC(=O)c1nc(-c2nc(C(F)(F)F)c(Oc3ccc(Cl)c(Cl)c3)c(=O)[nH]2)no1` [Example 260, Ethyl 3-[5-(3,4-dichlorophenoxy)-6-oxo-4-(trifluoromethyl)-1,6-dihydropyrimidin-2-yl]-1,2,4-oxadiazole-5-carboxylate x N,N-diisopropylethylamine], the half-inhibitory concentration (IC50) at human CCR2 was 0.013 µM; on murine CCR2 [2] it was 0.12 µM.
Taken in the same sequence, the figures for `O=c1[nH]c(CN2CCOCC2)nc(C(F)(F)F)c1Cc1ccc(Cl)c(Cl)c1` [Example 261, 5-(3,4-Dichlorobenzyl)-2-(morpholin-4-ylmethyl)-6-(trifluoromethyl)pyrimidin-4(3H)-one] were 0.36 µM and 0.63 µM.
Consider `Cn1nc(Cc2nc(C(F)(F)F)c(Cc3ccc(Cl)c(Cl)c3)c(=O)[nH]2)[nH]c1=O` [Example 263, 5-(3,4-Dichlorobenzyl)-2-[(1-methyl-5-oxo-4,5-dihydro-1H-1,2,4-triazol-3-yl)methyl]-6-(trifluoromethyl)pyrimidin-4(3H)-one], for which the IC50 against human CCR2 was 0.18 µM; at murine CCR2 [2] it was 0.68 µM.
